Columns and labels:
[1] = system: UCP1 mRNA expression in human skeletal muscle; test: UCP1 mRNA expression in vastus lateralis muscle biopsies of obese type 2 diabetic patients before and after rosiglitazone, quantitative RT-PCR; type: in vivo; details: for UCP1 mRNA level after treatment (Rosi), normalized to cyclophilin A: after 8 weeks
Procedure: Since the PPARγ agonist rosiglitazone was a strong inducer of UCP1 mRNA expression in muscle CD34+ cells in culture, the effect of this compound in vivo in humans was investigated. Vastus lateralis muscle biopsies from 7 obese patients with type 2 diabetes mellitus treated for the management of their metabolic syndrome with rosiglitazone were used. The biopsies were obtained before and after 8 weeks of treatment with rosiglitazone (2×4 mg per day). […] In that study rosiglitazone, concomitantly with the improvement in insulin sensitivity, increased the level of expression of UCP1 in muscle by about 1.6-fold. […] The results are the means±s.e.m. of arbitrary values normalized using the corresponding cyclophilin A values (n=7, *p<0.05 vs. control).
In FIG. 5, showing UCP1 mRNA levels in skeletal muscle biopsies from a patient group (n=7), “control” corresponds to levels before treatment, and “Rosi” corresponds to levels after treatment (8 weeks) with rosiglitazone. Being a longitudinal study the effect of rosiglitazone on UCP1 levels in each individual (comparison of individual values for the “control”-before and “Rosi”-after conditions) were determined. Starting with 25 ng cDNA (produced by reverse transcription of RNA) the threshold of detection (Ct) during real-time PCR was about 22 for UCP1 and about 18 for cyclophilin.
Human fetal tissues were obtained anonymously, following spontaneous, voluntary or therapeutic terminations of pregnancy, from Magee Women Hospital, University of Pittsburgh, in compliance with the Institutional Review Board protocol. Developmental age (16 to 24 weeks of gestation) was estimated by measuring foot length. Informed consent to the use of fetal tissues was obtained from the patients in all instances. Adult human discarded abdominal subcutaneous WAT, originating from 45-55 year old patients undergoing plastic surgery performed one year after gastric bypass, was kindly provided by Dr Peter Rubin (Division of Plastic Surgery, University of Pittsburgh). The adult skeletal muscle tissue used for cell sorting was obtained post mortem from 50-78 year-old donors. The adult skeletal muscle used for the first group of RT-PCR studies was obtained from the rectus abdominus during surgery for either lap banding, inguinal hernia or hysterectomy of 10 lean male and female subjects. All subjects agreed to donate muscle samples during their operations and the protocol was approved by the Medical Ethical Review Committee of Deakin University. The average ages were 45±3 years and the average body mass index was 22.2±0.8. The adult skeletal muscle used for the second group of RT-PCR studies was obtained from the vastus lateralis of 7 obese type 2 diabetic male and female patients before and after 8 weeks of treatment with rosiglitazone (2×4 mg per day). The average age was 63±4 years and the average body mass index was […]. The complete clinical profile of the patients has been described in a previous publication. All subjects agreed to donate muscle samples, and the protocol was approved by the Medical Ethical Review Committee of Maastricht University.
Total cell RNA was prepared using the kit NucleoSpin® RNAII (Clontech, Palo Alto, Calif.) or Extract-all solution (Eurobio, Courtaboeuf, France) and quantified by Biophotometry (Biophotometer, Eppendor). Oligo-dT primed First strand cDNA were synthesized using the Superscript™ II RNase H Reverse Transcription kit (Invitrogen, Carlsbad, Calif.) and oligo-dT primers or the High Capacity cDNA Reverse Transcription kit (Applied Biosystems, Foster City, Calif.) and random primers. Quantitative real-time PCR was performed using ABI rapid thermal cycler system, and a SYBR Green PCR master mix (Applied Biosystems, Foster City, Calif.). Cyclophilin A was used as a control to account for any variations due to the efficiency of the reverse transcription. […]

[2] = system: UCP1 mRNA expression in fetal muscle CD34+ cells; test: UCP1 mRNA expression in cultured fetal muscle CD34+ cells, quantitative RT-PCR normalized to cyclophilin A; type: cell-based, human; details: rosiglitazone 1 μM
Procedure: UCP1 mRNA expression in fetal muscle CD34+ cells could be modulated by drug treatment. Cell-permeating cAMP derivatives strongly stimulated (7 to 8-fold) UCP1 mRNA expression in both primary cultured and expanded cells. The effects of cAMP derivatives, 8-bromo-cAMP, 0.25 mM or (4-chlorophenylthio)-cAMP, 0.25 mM (cAMP) on UCP1 mRNA expression in CD34+ cells in primary culture (PC) or expanded up to passage 3 (P3) are shown in FIG. 3B. All the cells were grown for 4-6 days in EGM2 medium and then placed for 8-12 days in the adipogenic medium described under Materials and Methods. The results are means±s.e.m. of arbitrary values normalized using the corresponding cyclophilin A values. They are expressed in % of their respective untreated (control) values considered as 100% (*p<0.05, n=3-6).
Rosiglitazone, a PPARγ agonist, had no effect in primary culture cells but strongly stimulated (8-fold) UCP1 mRNA expression in expanded cells. The results are expressed as in FIG. 3B (**p<0.01, n=4-7). […]
Total cell RNA was prepared using the kit NucleoSpin® RNAII (Clontech, Palo Alto, Calif.) or Extract-all solution (Eurobio, Courtaboeuf, France) and quantified by Biophotometry (Biophotometer, Eppendor). […] Quantitative real-time PCR was performed using ABI rapid thermal cycler system, and a SYBR Green PCR master mix (Applied Biosystems, Foster City, Calif.). […]

CN(CCOc1ccc(CC2SC(=O)NC2=O)cc1)c1ccccn1 (centres unmarked) [rosiglitazone]
increase of the level of expression of UCP1 in muscle ([1]; 7 obese type 2 diabetic patients, 8 weeks, 2×4 mg per day, after vs before treatment, mean): about 1.6 fold | UCP1 level at end of treatment in % of before treatment ([1]; Patient 1, 8 weeks): 150% | UCP1 level increase, end of treatment vs. before ([1]; Patient 1, 8 weeks): 50% | UCP1 mRNA level after treatment (Rosi), normalized to cyclophilin A ([1]; Patient 1): 652 arbitrary units | UCP1 level at end of treatment in % of before treatment ([1]; Patient 2, 8 weeks): 100% | UCP1 mRNA level after treatment (Rosi), normalized to cyclophilin A ([1]; Patient 2): 453 arbitrary units | UCP1 level at end of treatment in % of before treatment ([1]; Patient 3, 8 weeks): 180% | UCP1 level increase, end of treatment vs. before ([1]; Patient 3, 8 weeks): 80% | UCP1 mRNA level after treatment (Rosi), normalized to cyclophilin A ([1]; Patient 3): 677 arbitrary units | UCP1 level at end of treatment in % of before treatment ([1]; Patient 4, 8 weeks): 280% | UCP1 level increase, end of treatment vs. before ([1]; Patient 4, 8 weeks): 180% | UCP1 mRNA level after treatment (Rosi), normalized to cyclophilin A ([1]; Patient 4): 730 arbitrary units | UCP1 level at end of treatment in % of before treatment ([1]; Patient 5, 8 weeks): 108% | UCP1 level increase, end of treatment vs. before ([1]; Patient 5, 8 weeks): 8% | UCP1 mRNA level after treatment (Rosi), normalized to cyclophilin A ([1]; Patient 5): 600 arbitrary units | UCP1 level at end of treatment in % of before treatment ([1]; Patient 6, 8 weeks): 410% | UCP1 level increase, end of treatment vs. before ([1]; Patient 6, 8 weeks): 310% | UCP1 mRNA level after treatment (Rosi), normalized to cyclophilin A ([1]; Patient 6): 556 arbitrary units | UCP1 level at end of treatment in % of before treatment ([1]; Patient 7, 8 weeks): 110% | UCP1 level increase, end of treatment vs. before ([1]; Patient 7, 8 weeks): 10% | UCP1 mRNA level after treatment (Rosi), normalized to cyclophilin A ([1]; Patient 7): 142 arbitrary units | stimulation of UCP1 mRNA expression ([2]; CD34+ cells expanded up to passage 3 (P3)): 8 fold | effect on UCP1 mRNA expression ([2]; CD34+ cells in primary culture (PC)): no effect

Reference: patent US12025612B2, “Brown adipocyte progenitors in human skeletal muscle” (Energesis Pharmaceuticals, Inc., priority 2008, dated 2024)
